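48-hour exposure; five concentrations; linearly interpolated endpoints. TGI: total growth inhibition.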
How the values were obtained:
Assay in all cases: NCI anticancer screen, dose series, 48 h
[1] = system: RPMI-8226 leukemia
[2] = system: SF-295 CNS
[3] = system: NCI/ADR-RES ovarian
[4] = system: MDA-MB-231 breast
[5] = system: T-47D breast
[6] = system: HCC-2998 colon
[7] = system: UO-31 renal
[8] = system: HCT-116 colon
[9] = system: NCI-H460 lung
[10] = system: OVCAR-8 ovarian
[11] = system: RXF 393 renal
[12] = system: COLO 205 colon
[13] = system: MOLT-4 leukemia
[14] = system: A549 NSCLC
[15] = system: OVCAR-5 ovarian
[16] = system: NCI-H522 lung
[17] = system: SR leukemia
[18] = system: SN12C renal
[19] = system: HCT-15 colon
[20] = system: BT-549 breast

Structure (SMILES)	TGI [1]	TGI [2]	TGI [3]	TGI [4]	TGI [5]	TGI [6]	TGI [7]	TGI [8]	TGI [9]	TGI [10]	TGI [11]	TGI [12]	TGI [13]	TGI [14]	TGI [15]	TGI [16]	TGI [17]	TGI [18]	TGI [19]	TGI [20]
O=C1Nc2ccccc2C1S(=O)(=O)c1ccccc1 (stereo not given)	> 100 µM	> 100 µM	> 100 µM	> 100 µM	> 100 µM	> 100 µM	> 100 µM	> 100 µM	> 100 µM	> 100 µM	> 100 µM	> 100 µM	> 100 µM	> 100 µM	> 100 µM	> 100 µM	> 100 µM	> 100 µM	> 100 µM	> 100 µM
O=C(O)Cc1ccc(Oc2nc3ccccc3nc2-c2ccccc2)cc1	> 100 µM	> 100 µM	> 100 µM	> 100 µM	> 100 µM	99.5 µM	> 100 µM	> 100 µM	> 100 µM	> 100 µM	98.2 µM	> 100 µM	> 100 µM	> 100 µM	> 100 µM	> 100 µM	> 100 µM	> 100 µM	> 100 µM	> 100 µM
O=S(=O)(/N=C(\NO)Nc1ccc(Cl)cc1)c1cc(S(=O)(=O)c2ccccc2)cs1	44.8 µM	32.7 µM	> 100 µM	56.1 µM	44.3 µM	27.6 µM	27.6 µM	26.4 µM	40.7 µM	36.7 µM	31 µM	34.2 µM	39.8 µM	93.1 µM	42.5 µM	25.2 µM	95.7 µM	33.6 µM	44.3 µM	45.7 µM
CC(=O)O[C@H]1C[C@H]2[C@@H]([C@H](OC(C)=O)C[C@@H]3CC4(CC[C@@]32C)OOC2(CCCCC2)OO4)[C@@H]2CC[C@H]([C@H](C)CCC(=O)O)[C@@]12C	20.7 µM	19.1 µM	19 µM	34.1 µM	45.7 µM	25 µM	11 µM	19.2 µM	21.6 µM	16.1 µM	31.3 µM	14 µM	51.6 µM	12.8 µM	29.8 µM	9.36 µM	8.3 µM	20.7 µM	17 µM	17.3 µM
CC(=O)Nc1sccc1S(=O)(=O)c1ccc(Cl)cc1	> 100 µM	> 100 µM	> 100 µM	> 100 µM	> 100 µM	> 100 µM	> 100 µM	> 100 µM	> 100 µM	> 100 µM	> 100 µM	> 100 µM	> 100 µM	> 100 µM	> 100 µM	> 100 µM	> 100 µM	> 100 µM	> 100 µM	> 100 µM
O=C(O)c1ccccc1CC(Cc1ccccc1)C(=O)O (stereo not given)	> 100 µM	> 100 µM	> 100 µM	> 100 µM	> 100 µM	> 100 µM	> 100 µM	> 100 µM	> 100 µM	> 100 µM	> 100 µM	> 100 µM	> 100 µM	> 100 µM	> 100 µM	> 100 µM	> 100 µM	> 100 µM	> 100 µM	> 100 µM
Cn1cnnc1SC(F)(F)c1nc2ccccc2o1	> 100 µM	> 100 µM	> 100 µM	> 100 µM	> 100 µM	> 100 µM	> 100 µM	> 100 µM	> 100 µM	> 100 µM	> 100 µM	> 100 µM	> 100 µM	> 100 µM	> 100 µM	> 100 µM	> 100 µM	> 100 µM	> 100 µM	> 100 µM
CCOC(=O)C1=C(C)N(CC(C)C)C2(O)C(OC)CC(=O)C3C(=O)N(c4ccccc4)C(=O)C132 (stereo not given)	> 100 µM	> 100 µM	> 100 µM	> 100 µM	> 100 µM	53.8 µM	39.2 µM	> 100 µM	> 100 µM	59.6 µM	54.5 µM	> 100 µM	75.6 µM	> 100 µM	> 100 µM	34.5 µM	49.9 µM	> 100 µM	> 100 µM	> 100 µM
COc1cccc(Nc2nc(NS(=O)(=O)c3cc(C)c(Cl)cc3S)n[nH]2)c1	> 100 µM	> 100 µM	> 100 µM	> 100 µM	> 100 µM	> 100 µM	> 100 µM	> 100 µM	> 100 µM	> 100 µM	> 100 µM	> 100 µM	> 100 µM	> 100 µM	> 100 µM	> 100 µM	> 100 µM	> 100 µM	> 100 µM	> 100 µM
CN(CCCNC(=O)c1c2ccc3ccccc3c2nn1C)CCCNC(=O)c1c2ccc3ccccc3c2nn1C	4.86 µM	9.77 µM	29.3 µM	25.8 µM	32.2 µM	3.44 µM	19.9 µM	28 µM	18.4 µM	27.2 µM	20 µM	3.54 µM	24 µM	26.9 µM	25.4 µM	19.7 µM	13 µM	25.6 µM	19.4 µM	24 µM
